Experimental data reported in patent US11815435B2, “Beta glucan immunopharmacodynamics” (HiberCell, Inc., priority 2017, dated 2023).

Tested on: IPD responses (SC5b-9, monocyte and neutrophil mobilization, MCP-1, CIC, IL-8)
Assay: Immunopharmacodynamic (IPD) responses taken together: dose and dosing interval comparison
Type: in vivo, human
Details: for IPD response: mid ABA (20-50 μg/ml) subjects
Procedure: In Cohort 3, subjects received either 2 mg/kg PGG or 4 mg/kg PGG by IV infusion over 1-2 hours. The subjects were administered either dose of PGG once weekly for 2 weeks, then given a 2 week wash out (no PGG) and finally received one more dose of PGG (week 5). Adverse events and complete blood counts were evaluated. In addition, whole blood and serum was evaluated for the following at various time points post-infusion: PGG binding to immune cells (monocytes, neutrophils, B-cells, DC subsets), complement activation (C5a and Sc5b9), serum cytokine/chemokine levels, IgG ABA levels, flow cytometry of immune cells, circulating immune complex formation and Quantigene analysis of transcriptional profile. Table 1 lists each subject's pre-dose IgG ABA levels, PGG dose and whether they received premedications.
Thus, changes in IPD responses induced by PGG administration are dependent on ABA levels.
IPD responses were compared between subjects within subgroups administered doses of either 2 mg/kg and 4 mg/kg PGG. […] Therefore, an effective dose of PGG for Mid-ABA subjects is higher than an effective dose of PGG for High-ABA subjects. This is beneficial to High-ABA subjects because with a lower PGG dose, they will experience fewer adverse events.
Increasing the time between soluble β-glucan doses may not only promote repeated acute IPD responses but also enhance acute IPD responses, which may increase the effectiveness of soluble β-glucan therapy. Subjects in Cohort 3, as described above, were administered a dose of PGG once weekly for 2 weeks, then given a 2 week wash out (no PGG) and finally received one more dose of PGG (week 5).
Levels of CIC (FIG. 19), SC5b-9 (FIG. 20), neutrophil mobilization (FIG. 21), IL-8 (FIG. 22) and MCP-1 (FIG. 22) were also measured over the course of treatment. […] In some cases, acute IPD responses were only seen with the final dose—after the 2 week dosing interval. In other cases, the acute IPD responses were enhanced with the final dose. Thus, for some immunotherapies or even some individuals, increasing the amount of time between dosing with soluble β-glucan may lead to enhanced efficacy.

β(1,6)-[poly-(1,3)-D-glucopyranosyl]-poly-β(1,3)-D-glucopyranose [PGG]
acute IPD responses (CIC, SC5b-9, neutrophil mobilization, IL-8, MCP-1) (Cohort 3, dosing after a 2 week dosing interval): generated or enhanced | changes in IPD responses (low-ABA subjects, PGG administration): very little to no changes in responses | IPD response (2 mg/kg PGG): minimal response | IPD response (4 mg/kg PGG): responded much better (on par with High-ABA subjects) | IPD responses, 2 mg/kg vs 4 mg/kg dose (subjects with ABA>50 μg/ml): similar
